Where “and” joins values, the source holds several entries; their conditions need not be identical. Equal entries are not always repeated. Where two headings read alike, the source gives them in different places. Where a SMILES comes first, the peptide text is derived from it. Where no end group is shown, it is not given here. The star is where a group is joined. Succinimide(1-Et,3-yl) = CCN1C(=O)CC(*)C1=O
T1: human CRHR2 (Homo sapiens, UniProt Q13324)
T1 construct: expressed in transfected cells
T1 sequence (Q13324 1-411): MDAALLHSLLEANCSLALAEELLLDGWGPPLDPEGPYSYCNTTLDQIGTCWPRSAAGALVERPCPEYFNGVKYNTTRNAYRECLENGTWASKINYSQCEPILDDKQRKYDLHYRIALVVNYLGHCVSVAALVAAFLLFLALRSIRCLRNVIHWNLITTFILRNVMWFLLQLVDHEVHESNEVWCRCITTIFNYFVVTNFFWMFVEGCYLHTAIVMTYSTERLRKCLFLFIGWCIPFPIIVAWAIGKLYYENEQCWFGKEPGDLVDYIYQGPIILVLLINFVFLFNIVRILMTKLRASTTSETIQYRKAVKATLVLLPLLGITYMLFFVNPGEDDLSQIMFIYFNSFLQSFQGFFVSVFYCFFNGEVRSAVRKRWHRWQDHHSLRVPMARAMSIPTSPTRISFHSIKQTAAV

T2: human corticotrophin releasing hormone receptor type 2 (CRHR2) (human, UniProt Q13324 1-411)
T2 sequence (looked up): T1 sequence (Q13324 1-411)


Columns and labels:
[1] = target: T1, human CRHR2; test: cAMP assay, h-CRHR2 transfected SK-N-MC cells; type: cell-based; conditions: for EC50: read-out: pA50 (converted); for Log DR [M]: h-SCP control pA50 minus test compound pA50 within the same assay batch; for αmax: normalized to the maximum response to h-SCP
Protocol: The concentration required for 50% maximum effect (A50) was 0.4 nM.
Human CRHR1 (accession number X72304) or CRHR2 (accession number U34587) were cloned into pcDNA3.1/Zeo expression vector and stably transfected into SK—N-MC cells by electroporation. Cells were maintained in MEM w/Earl's Salt with 10% FBS, 50 I.U. penicillin, 50 μg/ml streptomycin, 2 mM L-glutamine, 1 mM sodium pyruvate and 0.1 mM non-essential amino acids, 600 μg/ml G418. Cells were grown at 37° C. in 5% CO2
Cells were plated in 96-well tissue culture dishes (Biocoat from BD Biosciences) overnight at 50,000 cell/well. Cells were washed with PBS then resuspended in DMEM F-12 without phenol red, containing 10 μM isobutylmethylxanthine (IBMX). Cells were incubated with the peptides at concentrations ranging from 1 pM to 10 μM for 60 min at 37° Celsius. […] Forskolin (10 μM), a direct stimulant of adenylate cyclase, was used as positive control. The assays were stopped by the addition of 0.5 M HCl and mixing by orbital rotation for 2 h at 4° Celsius.
To assess the activity of the inventive polypeptide at the CRHR2, an intracellular cAMP measurement test using a Flash plate radioactive assay (Catalog No. Cus56088; Perkin Elmer, Mass., U.S.A.) was employed.
Transfected SK—N-MC cells were plated in 96-well Biocoat tissue culture dishes (BD Biosciences, San Jose, Calif., U.S.A) overnight at 50,000 cell/well. Cells were first washed with PBS and then suspended with DMEM/F-12 without phenol red, containing […]. Suspended cells were transferred into a 96-well flash plate coated with scintillant fluid. Cells were incubated with peptides ranging from 1 pM to 1 μM, for 60 min, at 37° Celsius. Forskolin at 10 μM was used as positive control. After ligand stimulation, cells were lysed by the addition of 0.5M HCl and mixed by orbital rotation for 2 h at 4° Celsius in order to release intracellular cAMP into the media.
Media containing released intracellular cAMP was transferred to a 96-well flash plate coated with scintillant fluid containing an anti-cAMP antibody. In this assay, intracellular cAMP competes with ^125I-labeled cAMP binding to the antibody. To generate a standard curve, cAMP ranging from 2.5 to 250 pmoles/ml was included in the experiment. [^125I]-cAMP was measured on a TopCount scintillation counter (Perkin Elmer, Mass., U.S.A).
Individual agonist concentration-response curve data were fitted to the Hill equation, see formula below, using GraphPad Prism (Graphpad Software, La Jolla, Calif., U.S.A.), to provide estimates of agonist concentration needed to generate one-half maximal response (A50), and the maximal asymptote (α) and Hill slope (nH) parameters. In this equation, [A] is the agonist concentration and E is the measured effect:
For display purposes the mean fitted parameter estimates were used to generate a single E/[A] curve shown superimposed on the mean experimental data. Potency estimates for agonists, pA50, are expressed as the negative logarithm of the midpoint of each curve and listed with their standard error of measurement (SEM). Logarithm base 10 of the agonist dose ratio (Log DR) values were calculated by subtraction of the test compound pA50 value from the corresponding h-SCP (SEQ ID NO:1) control pA50 value within the same assay batch. The SEM values of the Log DR values are given by the square root of the sum of the squared SEM values of the h-SCP (SEQ ID NO:1) control and test compound pA50 values.
Human and rat peptides (see Table 10) were used on the stimulation of h-CRHR1 or h-CRHR2 transfected SK—N-MC cells in the cAMP flash plate assay. Peptides were incubated for 1 hr at 37° Celsius. Curves were calculated using non-linear regression sigmoidal concentration-response analysis calculation in GraphPad Prism. The so obtained pA50 values are shown in Table 11 in addition to literature values. […]

[2] = target: T2, human corticotrophin releasing hormone …; test: cell-based or functional assay
[3] = Table 13, cysteine mutation, N-ethylmaleimide capping, pegylation
[4] = Table 12, amidation and N-terminal deletions, normalized to maximum response to h-SCP, 3-5 replicate experiments

Row | EC50 [1, 3] [nM] | Log DR [M] ([1]; Table 13) | Log DR [2] [log10] | pA50 [2] | Molecule | other results
1 | 0.676 | 0.52 | – | – | TKFTLSLDVPTNIMNLLFNICKAKNLRAQAAANAHLMAQI-NH2 [SEQ ID NO: 22, TKFTLSLDVPTNIMNLLFNICKAKNLRAQAAANAHLMAQI-NH2] | –
2 | ~45.7 | >2 | – | – | H-TKFTLSLDVPTNCMNLLFNIAKAKNLRAQAAANAHLMAQI-NH2 [SEQ ID NO: 14, TKFTLSLDVPTNCMNLLFNIAKAKNLRAQAAANAHLMAQI-NH2] | –
3 | – | – | – | – | TKFTLSLDVPTNIMNLLFNIAKAKNLRAQAAANAHLMAQI-OH [SEQ ID NO: 113, TKFTLSLDVPTNIMNLLFNIAKAKNLRAQAAANAHLMAQI] | fold less potent than the amidated parent peptide [1]: approximately 200 fold; nH ([1]; Table 12): 1.07; EC50 [1, 4]: 79.4 nM; αmax ([1]; Table 12): 107.4
4 | 15.8 | 1.89 | – | – | TKFTLSLCVPTNIMNLLFNIAKAKNLRAQAAANAHLMAQI-NH2 [SEQ ID NO: 9, TKFTLSLCVPTNIMNLLFNIAKAKNLRAQAAANAHLMAQI-NH2] | –
5 | 2.63 | 1.05 | – | – | TKFTLSLDVPTNIMNLLFNIAKAKNLRAQAAANAHCMAQI-NH2 [SEQ ID NO: 37, TKFTLSLDVPTNIMNLLFNIAKAKNLRAQAAANAHCMAQI-NH2] | –
6 | 0.832 | 0.55 | – | – | TKFTLSLDVPTNIMNLLFNIAKAKNLRAQAAANAHLMACI-NH2 [SEQ ID NO: 40, TKFTLSLDVPTNIMNLLFNIAKAKNLRAQAAANAHLMACI-NH2] | –
7 | 1.17 | 0.76 | – | – | TKFCLSLDVPTNIMNLLFNIAKAKNLRAQAAANAHLMAQI-NH2 [SEQ ID NO: 5, TKFCLSLDVPTNIMNLLFNIAKAKNLRAQAAANAHLMAQI-NH2] | –
8 | 0.372 | 0.04 | – | – | CC[C@H](C)[C@H](NC(=O)[C@H](CCC(N)=O)NC(=O)[C@H](C)NC(=O)[C@H](CCSC)NC(=O)[C@H](CC(C)C)NC(=O)[C@H](Cc1c[nH]cn1)NC(=O)[C@H](C)NC(=O)[C@H](CC(N)=O)NC(=O)[C@H](C)NC(=O)[C@H](CSC1CC(=O)N(CC)C1=O)NC(=O)[C@H](C)NC(=O)[C@H](CCC(N)=O)NC(=O)[C@H](C)NC(=O)[C@H](CCCNC(=N)N)NC(=O)[C@H](CC(C)C)NC(=O)[C@H](CC(N)=O)NC(=O)[C@H](CCCCN)NC(=O)[C@H](C)NC(=O)[C@H](CCCCN)NC(=O)[C@H](C)NC(=O)[C@@H](NC(=O)[C@H](CC(N)=O)NC(=O)[C@H](Cc1ccccc1)NC(=O)[C@H](CC(C)C)NC(=O)[C@H](CC(C)C)NC(=O)[C@H](CC(N)=O)NC(=O)[C@H](CCSC)NC(=O)[C@@H](NC(=O)[C@H](CC(N)=O)NC(=O)[C@@H](NC(=O)[C@@H]1CCCN1C(=O)[C@@H](NC(=O)[C@H](CC(=O)O)NC(=O)[C@H](CC(C)C)NC(=O)[C@H](CO)NC(=O)[C@H](CC(C)C)NC(=O)[C@@H](NC(=O)[C@H](Cc1ccccc1)NC(=O)[C@H](CCCCN)NC(=O)[C@@H](N)[C@@H](C)O)[C@@H](C)O)C(C)C)[C@@H](C)O)[C@@H](C)CC)[C@@H](C)CC)C(N)=O (some centres unmarked) [SEQ ID NO: 46, TKFTLSLDVPTNIMNLLFNIAKAKNLRAQAC(-NES)ANAH LMAQI-NH2] (H-TKFTLSLDVPTNIMNLLFNIAKAKNLRAQAC(Succinimide(1-Et,3-yl))ANAHLMAQI-NH2; N-terminus assumed) | –
9 | 0.162 | −0.32 | – | – | CC[C@H](C)[C@H](NC(=O)[C@H](CCC(N)=O)NC(=O)[C@H](C)NC(=O)[C@H](CCSC)NC(=O)[C@H](CC(C)C)NC(=O)[C@H](CSC1CC(=O)N(CC)C1=O)NC(=O)[C@H](C)NC(=O)[C@H](CC(N)=O)NC(=O)[C@H](C)NC(=O)[C@H](C)NC(=O)[C@H](C)NC(=O)[C@H](CCC(N)=O)NC(=O)[C@H](C)NC(=O)[C@H](CCCNC(=N)N)NC(=O)[C@H](CC(C)C)NC(=O)[C@H](CC(N)=O)NC(=O)[C@H](CCCCN)NC(=O)[C@H](C)NC(=O)[C@H](CCCCN)NC(=O)[C@H](C)NC(=O)[C@@H](NC(=O)[C@H](CC(N)=O)NC(=O)[C@H](Cc1ccccc1)NC(=O)[C@H](CC(C)C)NC(=O)[C@H](CC(C)C)NC(=O)[C@H](CC(N)=O)NC(=O)[C@H](CCSC)NC(=O)[C@@H](NC(=O)[C@H](CC(N)=O)NC(=O)[C@@H](NC(=O)[C@@H]1CCCN1C(=O)[C@@H](NC(=O)[C@H](CC(=O)O)NC(=O)[C@H](CC(C)C)NC(=O)[C@H](CO)NC(=O)[C@H](CC(C)C)NC(=O)[C@@H](NC(=O)[C@H](Cc1ccccc1)NC(=O)[C@H](CCCCN)NC(=O)[C@@H](N)[C@@H](C)O)[C@@H](C)O)C(C)C)[C@@H](C)O)[C@@H](C)CC)[C@@H](C)CC)C(N)=O (some centres unmarked) [SEQ ID NO: 43, TKFTLSLDVPTNIMNLLFNIAKAKNLRAQAAANAC(-NES) LMAQI-NH2] (H-TKFTLSLDVPTNIMNLLFNIAKAKNLRAQAAANAC(Succinimide(1-Et,3-yl))LMAQI-NH2) | –
10 | – | – | – | – | KFTLSLDVPTNIMNLLFNIAKAKNLRAQAAANAHLMAQI-NH2 [SEQ ID NO: 107, KFTLSLDVPTNIMNLLFNIAKAKNLRAQAAANAHLMAQI-NH2] | nH ([1]; Table 12): 1.07; EC50 [1, 4]: 0.575 nM and 0.562 nM; αmax ([1]; Table 12): 111.3
11 | – | – | 0.02 | 9.5 -log10(M) | TKFTLSLDVPTNIMNCLFNIAKAKNLRAQAAANAHLMAQI-NH2 [Cys-variant stresscopin-like peptide SEQ ID NO: 17] | –
12 | – | – | 0.9 | 8.68 -log10(M) | TKFTLSLDVPTNICNLLFNIAKAKNLRAQAAANAHLMAQI-NH2 [Cys-variant stresscopin-like peptide SEQ ID NO: 15] | –
13 | – | – | > 3 | ~6.35 -log10(M) | TKFTLSLDVPTNCMNLLFNIAKAKNLRAQAAANAHLMAQI (NES-PEG (about 20 kDa) on Cys 13; C-terminal amide (-NH2)) [Pegylated Cys-variant stresscopin-like peptide with NES linker and PEG about 20 kDa SEQ ID NO: 67] | –
14 | – | – | 2.09 | 7.45 -log10(M) | TKFTLSLDVPTNIMCLLFNIAKAKNLRAQAAANAHLMAQI (NES-PEG (about 20 kDa) on Cys 15; C-terminal amide (-NH2)) [Pegylated Cys-variant stresscopin-like peptide with NES linker and PEG about 20 kDa SEQ ID NO: 69] | –
15 | – | – | ~2.61 | ~6.96 -log10(M) | TKFTLSLDVPTNICNLLFNIAKAKNLRAQAAANAHLMAQI (NES-PEG (about 20 kDa) on Cys 14; C-terminal amide (-NH2)) [Pegylated Cys-variant stresscopin-like peptide with NES linker and PEG about 20 kDa SEQ ID NO: 68] | –
16 | – | – | ~2.07 | ~7.34 -log10(M) | TKFTLSLDVPTNIMNCLFNIAKAKNLRAQAAANAHLMAQI (NES-PEG (about 20 kDa) on Cys 16; C-terminal amide (-NH2)) [Pegylated Cys-variant stresscopin-like peptide with NES linker and PEG about 20 kDa SEQ ID NO: 70] | –
17 | – | – | 0.76 | 8.93 -log10(M) | TKFTLSLDVPTNIMCLLFNIAKAKNLRAQAAANAHLMAQI-NH2 [Cys-variant stresscopin-like peptide SEQ ID NO: 16] | –
18 | – | – | 1.11 | 8.41 -log10(M) | TKFTLSLDVPTNIMNLCFNIAKAKNLRAQAAANAHLMAQI-NH2 [Cys-variant stresscopin-like peptide SEQ ID NO: 18] | –
19 | – | – | > 2 | ~7.34 -log10(M) | TKFTLSLDVPTNCMNLLFNIAKAKNLRAQAAANAHLMAQI-NH2 [Cys-variant stresscopin-like peptide SEQ ID NO: 14] | –

Reference: US20110105397A1, “METHOD FOR TREATING HEART FAILURE WITH STRESSCOPIN-LIKE PEPTIDES” (priority 2009, published 2011)
